Measurements published in EP2201946A1, “PAI-1 PRODUCTION INHIBITOR” (Institute of Medicinal Molecular Design, Inc., priority 2007, dated 2009).

Legend:
[1] = system: Chronic Obstructive Pulmonary Disease (COPD) model; experiment: Collagen accumulation in alveoli of guinea pigs exposed to cigarette smoke (Masson-trichrome, image analysis); assay type: in vivo; settings: smoke of 40 cigarettes a day for 25 days, oral once a day for 25 days, compound (1) 30 or 100 mg/kg/day, prednisolone 10 mg/kg/day (Fig. 2)
Description: Using the smoking exposure system (INH06-CIG01A, MIPS Inc.), 6-week old guinea pigs (Std: male Hartley, Japan SLC, Inc.) were exposed to smoke of 40 cigarettes (Peace (Registered Trademark), Japan Tobacco, Inc.) a day (20 cigarettes twice) for 25 continuous days (Chronic Obstructive Pulmonary Disease (COPD) model group: Control group: n=10). To theseguinea pigs, from the day of exposure to the smoke of tobacco, the compound (1) (30 mg/kg/day or 100 mg/kg/day) or prednisolone (10 mg/kg/day) was continuously administered orally once a day for 25 days (Compound (1) 30 mg administered group: n=5, Compound (1) 100 mg administered group: n=5, Prednisolone administered group: n=5). Furthermore, as a normal group, guinea pigs (n=5) exposed to air without the administration of the compound (1) and prednisolone were prepared. On the following day of the last exposure, after preparing paraffin sections in the lungs of each guinea pig, collagen was stained by the Masson-trichrome method, and the accumulations of collagen in the alveoli were measured by the area rate with the image analysis. […] Next, the above paraffin section was stained by the immunostaining method using an anti PAI-1 antibody (PAI-1 H-135; Santa Cruz; 250-fold dilution), and the ratio of PAI-1 expression cells to the total cell numbers infiltrated in the lung was measured. […]

[2] = system: TGF-β induced PAI-1 production; experiment: TGF-β induced PAI-1 production in HT1080 cells (Western blotting); assay type: cell-based; settings: TGF-β1 10 ng/mL, 6-hours incubation
Description: After incubating HT1080 cells for 48 hours in the MEM medium containing 10%FBS (Fetal Bovine Serum), the medium was changed to a MEM medium containing 1% FBS, and TGF-β1 (final concentration: 10 ng/mL) only, or TGF-β1 (final concentration: 10 ng/mL) and the test substances were added and incubated. As a control, a culture solution without neither TGF-β1 nor the test substances was prepared. After 6-hours incubation, the culture fluids were collected, and the PAI-1 amounts in the culture fluids were measured by the Western blotting. The PAI-1 amount when TGF-β1 only was added being "100%," and the PAI-1 amount in the control being "0%," PAI-1 I amounts at each concentration of the test substances (PAI-1 inhibition ratios) were calculated, and the concentrations of the compounds, which inhibited PAI-1 production to 50% (IC50) in amount, were obtained.

[3] = system: TGF-β induced PAI-1 production; experiment: TGF-β induced PAI-1 production in HepG2 cells (Human Serpin E1/PAI-1 DuoSet); assay type: cell-based; settings: Compound Concentration : 1μM, TGF-β1 1ng/mL, 24 hours
Description: HepG2 cells were seeded on a 96-well culture plate by 2x10^4 cells/well, and were incubated for 24 hours in the MEM medium containing 1% NEAA (Non-Essential Amino Acids), 1mM pyruvate, and 10% FBS. Then, the medium was changed to a MEM medium containing 1% NEAA, 1mM pyruvate and 1% FBS, and the cells were further incubated for 24 hours. Subsequently, after the medium was changed to a MEM medium containing 1% NEAA, 1mM pyruvate and 1% FBS, and then the cells were treated with the test substances (final concentration: 1 µM or 0.1 µM) for one hour, TGF-β1 (final concentration.1ng/mL) was added and the cells were further incubated for 24 hours. As controls, a culture solution added TGF-β1 only and a culture solution cultured without neither the test substances nor TGF-β1 were prepared. After the incubation, the PAI-1 amount was measured using Human Serpin E1/PAI-1 DuoSet (R&D Systems). The PAI-1 amount when treated with TGF-β1 only being "100%", and the PAI-1 amount when treated without neither the test substances nor TGF-β1 being "0%", the PAI-1 inhibition ratios of each test substance were calculated. IC50 of the compound (2) was about 50 nM.

Structure (SMILES)	accumulation of collagen in the alveoli (area rate) [1]	IC50 [2]	Inhibition Ratio (%) [3]
C[C@]12C=CC(=O)C=C1CC[C@@H]1[C@@H]2[C@@H](O)C[C@@]2(C)[C@H]1CC[C@]2(O)C(=O)CO [prednisolone]	not able to inhibit the accumulation of collagen		
O=C(Nc1cc(C(F)(F)F)ccc1C(F)(F)F)c1cc(Br)ccc1O [(3)]		83 nM	>90%
